# According to PubChem BioAssay (NCI):
#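 All cell lines were grown in 96-well plates and treated with compound for 48 hours. TGI: total growth inhibition.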
# How the values were obtained:
# Assay in all cases: inhibition of tumour cell growth, NCI panel, 48 h
# 786-0 renal = test system: 786-0 renal
# A498 renal = test system: A498 renal
# A549 NSCLC = test system: A549 NSCLC
# ACHN renal = test system: ACHN renal
# BT-549 breast = test system: BT-549 breast
# CAKI-1 renal = test system: CAKI-1 renal
# DU-145 prostate = test system: DU-145 prostate
# EKVX NSCLC = test system: EKVX NSCLC
# HCC-2998 colon = test system: HCC-2998 colon
# HCT-116 colon = test system: HCT-116 colon
# HCT-15 colon = test system: HCT-15 colon
# HL-60(TB) leukemia = test system: HL-60(TB) leukemia
# HOP-62 NSCLC = test system: HOP-62 NSCLC
# HOP-92 NSCLC = test system: HOP-92 NSCLC
# HS 578T breast = test system: HS 578T breast
# HT29 colon = test system: HT29 colon
# IGROV1 ovarian = test system: IGROV1 ovarian
# K-562 leukemia = test system: K-562 leukemia
# KM12 colon = test system: KM12 colon
# LOX IMVI melanoma = test system: LOX IMVI melanoma
# M14 melanoma = test system: M14 melanoma
# MCF7 breast = test system: MCF7 breast
# MDA-MB-231 breast = test system: MDA-MB-231 breast
# MDA-MB-435 = test system: MDA-MB-435
# MDA-N = test system: MDA-N
# MOLT-4 leukemia = test system: MOLT-4 leukemia
# NCI-H226 lung = test system: NCI-H226 lung
# NCI-H23 lung = test system: NCI-H23 lung
# NCI-H460 lung = test system: NCI-H460 lung
# NCI-H522 lung = test system: NCI-H522 lung
# NCI/ADR-RES ovarian = test system: NCI/ADR-RES ovarian
# OVCAR-3 ovarian = test system: OVCAR-3 ovarian
# OVCAR-4 ovarian = test system: OVCAR-4 ovarian
# OVCAR-5 ovarian = test system: OVCAR-5 ovarian
# OVCAR-8 ovarian = test system: OVCAR-8 ovarian
# PC-3 prostate = test system: PC-3 prostate
# RPMI-8226 leukemia = test system: RPMI-8226 leukemia
# RXF 393 renal = test system: RXF 393 renal
# SF-268 CNS = test system: SF-268 CNS
# SF-295 CNS = test system: SF-295 CNS
# SF-539 CNS = test system: SF-539 CNS
# SK-MEL-2 melanoma = test system: SK-MEL-2 melanoma
# SK-MEL-28 melanoma = test system: SK-MEL-28 melanoma
# SK-MEL-5 melanoma = test system: SK-MEL-5 melanoma
# SNB-75 CNS = test system: SNB-75 CNS
# SR leukemia = test system: SR leukemia
# SW-620 colon = test system: SW-620 colon
# T-47D breast = test system: T-47D breast
# TK-10 renal = test system: TK-10 renal
# U251 CNS = test system: U251 CNS
# UACC-257 melanoma = test system: UACC-257 melanoma
# UO-31 renal = test system: UO-31 renal
# CCRF-CEM leukemia = test system: CCRF-CEM leukemia
# COLO 205 colon = test system: COLO 205 colon
# SK-OV-3 ovarian = test system: SK-OV-3 ovarian
# UACC-62 melanoma = test system: UACC-62 melanoma
structure (smiles),measurement,setting,value
Cc1cc2c(cc1Cl)Sc1nnc(Nc3ccccc3)n1S2(=O)=O,TGI,786-0 renal,19.1 µM
same,TGI,A498 renal,33.8 µM
same,TGI,A549 NSCLC,32.7 µM
same,TGI,ACHN renal,30.3 µM
same,TGI,BT-549 breast,34 µM
same,TGI,CAKI-1 renal,53.8 µM
same,TGI,DU-145 prostate,> 100 µM
same,TGI,EKVX NSCLC,34.3 µM
same,TGI,HCC-2998 colon,14.2 µM
same,TGI,HCT-116 colon,37.1 µM
same,TGI,HCT-15 colon,28.9 µM
same,TGI,HL-60(TB) leukemia,16.4 µM
same,TGI,HOP-62 NSCLC,15 µM
same,TGI,HOP-92 NSCLC,28.8 µM
same,TGI,HS 578T breast,12.6 µM
same,TGI,HT29 colon,> 100 µM
same,TGI,IGROV1 ovarian,54.6 µM
same,TGI,K-562 leukemia,> 100 µM
same,TGI,KM12 colon,57.5 µM
same,TGI,LOX IMVI melanoma,18.7 µM
same,TGI,M14 melanoma,60.1 µM
same,TGI,MCF7 breast,32.4 µM
same,TGI,MDA-MB-231 breast,49.9 µM
same,TGI,MDA-MB-435,54.8 µM
same,TGI,MDA-N,31.2 µM
same,TGI,MOLT-4 leukemia,13.5 µM
same,TGI,NCI-H226 lung,10.7 µM
same,TGI,NCI-H23 lung,15.9 µM
same,TGI,NCI-H460 lung,33.2 µM
same,TGI,NCI-H522 lung,14.2 µM
same,TGI,NCI/ADR-RES ovarian,23.4 µM
same,TGI,OVCAR-3 ovarian,7.1 µM
same,TGI,OVCAR-4 ovarian,32 µM
same,TGI,OVCAR-5 ovarian,> 100 µM
same,TGI,OVCAR-8 ovarian,20.8 µM
same,TGI,PC-3 prostate,22.1 µM
same,TGI,RPMI-8226 leukemia,6.91 µM
same,TGI,RXF 393 renal,24.2 µM
same,TGI,SF-268 CNS,11 µM
same,TGI,SF-295 CNS,49.6 µM
same,TGI,SF-539 CNS,14.2 µM
same,TGI,SK-MEL-2 melanoma,21.2 µM
same,TGI,SK-MEL-28 melanoma,70.9 µM
same,TGI,SK-MEL-5 melanoma,53.8 µM
same,TGI,SNB-75 CNS,23.7 µM
same,TGI,SR leukemia,13.6 µM
same,TGI,SW-620 colon,> 100 µM
same,TGI,T-47D breast,57.3 µM
same,TGI,TK-10 renal,43.6 µM
same,TGI,U251 CNS,19.1 µM
same,TGI,UACC-257 melanoma,61.2 µM
same,TGI,UO-31 renal,41.8 µM
O=C(CCCn1cnc([N+](=O)[O-])n1)NCCn1ccnc1[N+](=O)[O-],TGI,A549 NSCLC,> 100 µM
same,TGI,ACHN renal,> 100 µM
same,TGI,BT-549 breast,> 100 µM
same,TGI,CAKI-1 renal,> 100 µM
same,TGI,CCRF-CEM leukemia,> 100 µM
same,TGI,COLO 205 colon,> 100 µM
same,TGI,DU-145 prostate,> 100 µM
same,TGI,EKVX NSCLC,> 100 µM
same,TGI,HCT-15 colon,> 100 µM
same,TGI,HL-60(TB) leukemia,> 100 µM
same,TGI,HOP-62 NSCLC,> 100 µM
same,TGI,HOP-92 NSCLC,> 100 µM
same,TGI,HS 578T breast,> 100 µM
same,TGI,HT29 colon,> 100 µM
same,TGI,IGROV1 ovarian,> 100 µM
same,TGI,K-562 leukemia,> 100 µM
same,TGI,KM12 colon,> 100 µM
same,TGI,LOX IMVI melanoma,> 100 µM
same,TGI,M14 melanoma,> 100 µM
same,TGI,MCF7 breast,> 100 µM
same,TGI,MDA-N,> 100 µM
same,TGI,MOLT-4 leukemia,> 100 µM
same,TGI,NCI-H226 lung,> 100 µM
same,TGI,NCI-H23 lung,> 100 µM
same,TGI,NCI-H460 lung,> 100 µM
same,TGI,NCI-H522 lung,> 100 µM
same,TGI,OVCAR-3 ovarian,> 100 µM
same,TGI,OVCAR-4 ovarian,> 100 µM
same,TGI,OVCAR-5 ovarian,> 100 µM
same,TGI,PC-3 prostate,> 100 µM
same,TGI,RPMI-8226 leukemia,> 100 µM
same,TGI,RXF 393 renal,> 100 µM
same,TGI,SF-268 CNS,> 100 µM
same,TGI,SF-295 CNS,> 100 µM
same,TGI,SK-MEL-2 melanoma,> 100 µM
same,TGI,SK-MEL-28 melanoma,> 100 µM
same,TGI,SK-MEL-5 melanoma,> 100 µM
same,TGI,SK-OV-3 ovarian,> 100 µM
same,TGI,SNB-75 CNS,> 100 µM
same,TGI,SR leukemia,> 100 µM
same,TGI,SW-620 colon,> 100 µM
same,TGI,T-47D breast,> 100 µM
same,TGI,TK-10 renal,> 100 µM
same,TGI,U251 CNS,> 100 µM
same,TGI,UACC-257 melanoma,> 100 µM
same,TGI,UACC-62 melanoma,> 100 µM
same,TGI,UO-31 renal,> 100 µM
